Experimental data as given in Sander's compilation of Henry's law constants (doi:10.1016/j.atmosenv.2006.04.009).

Assay: Henry solubility constant Hcp at 298.15 K (mol/(m3 Pa))
Settings: reference: Cetin et al. (2006)

| Structure (SMILES) | Henry solubility constant Hcp |
| --- | --- |
| ClC1=C(Cl)C2(Cl)C3C(Cl)C=CC3C1(Cl)C2(Cl)Cl (stereo not given) [heptachlor] | 0.019 |
| ClC1=C(Cl)[C@]2(Cl)[C@@H]3[C@@H]4C[C@@H]([C@H]5O[C@@H]45)[C@@H]3[C@@]1(Cl)C2(Cl)Cl [dieldrin] | 0.92 |
| ClC1=C(Cl)[C@]2(Cl)[C@H]3[C@H]([C@@H]4C=C[C@H]3C4)[C@@]1(Cl)C2(Cl)Cl [aldrin] | 0.022 |
| ClC1=C(Cl)[C@]2(Cl)[C@@H]3[C@H]4C[C@H]([C@@H]5O[C@H]45)[C@@H]3[C@@]1(Cl)C2(Cl)Cl [endrin] | 1.8 |
| ClC(Cl)=C(c1ccc(Cl)cc1)c1ccc(Cl)cc1 [1,1-dichloro-2,2-bis-(4-chlorophenyl)-ethene] | 0.16 |
| ClC1=C(Cl)C2(Cl)[C@H]3C(Cl)C(Cl)C(Cl)[C@H]3C1(Cl)C2(Cl)Cl (stereo partly drawn) [cis-nonachlor] | 1.4 |
| Clc1ccc(C(c2ccc(Cl)cc2)C(Cl)(Cl)Cl)cc1 [1,1,1-trichloro-2,2-bis-(4-chlorophenyl)-ethane] | 0.9 |
| ClC1=C(Cl)[C@]2(Cl)[C@@H]3[C@@H](Cl)[C@@H](Cl)C[C@@H]3[C@@]1(Cl)C2(Cl)Cl [cis-chlordane] | 0.15 |
| ClC1C(Cl)C(Cl)C(Cl)C(Cl)C1Cl (stereo not given) [γ-1,2,3,4,5,6-hexachlorocyclohexane] | 3.9 |
| CCOP(=S)(OCC)Oc1nc(Cl)c(Cl)cc1Cl [chlorpyrifos] | 0.22 |
| ClC1=C(Cl)[C@]2(Cl)[C@H]3[C@H](Cl)[C@@H](Cl)C[C@H]3[C@@]1(Cl)C2(Cl)Cl [trans-chlordane] | 0.063 |
| ClC1=C(Cl)C2(Cl)C3C(Cl)C(Cl)C(Cl)C3C1(Cl)C2(Cl)Cl (stereo not drawn) [trans-nonachlor] | 0.088 |
| ClC1C(Cl)C(Cl)C(Cl)C(Cl)C1Cl (stereo not drawn) [α-1,2,3,4,5,6-hexachlorocyclohexane] | 3 |
| Clc1ccc(C(c2ccc(Cl)cc2)C(Cl)Cl)cc1 [1,1-dichloro-2,2-bis-(4-chlorophenyl)-ethane] | 0.91 |
| ClC1=C(Cl)C2(Cl)C3C4OC4C(Cl)C3C1(Cl)C2(Cl)Cl (stereo not given) [heptachlorepoxide] | 0.5 |
